# Laboratory results from ChEMBL document CHEMBL5244272 (Eur J Med Chem, 2021).
# Tests used:
# Plasmodium falciparum [1] = test: Antimalarial activity against Plasmodium falciparum RKL9; type: functional, organism-based
# Plasmodium falciparum [2] = test: Antimalarial activity against ART-sensitive Plasmodium falciparum 3D7; type: functional, organism-based
# Plasmodium falciparum [3] = test: Antimalarial activity against ART-sensitive Plasmodium falciparum W2; type: functional, organism-based
# Plasmodium falciparum [4] = test: Antimalarial activity against ART-sensitive Plasmodium falciparum NF54; type: functional, organism-based
# Plasmodium falciparum [5] = test: Antimalarial activity against ART-resistant Plasmodium falciparum Dd2 harboring R539T mutant; type: functional, organism-based
# Plasmodium falciparum [6] = test: Antimalarial activity against ART-resistant Plasmodium falciparum NF54 harboring […] mutant; type: functional, organism-based
# Plasmodium yoelii [7] = test: Antimalarial activity against Plasmodium yoelii infected in sc dosed mouse; type: functional
# Plasmodium berghei [8] = test: Antimalarial activity against Plasmodium berghei infected in sc dosed mouse; type: functional; conditions: Plasmodium berghei
# Plasmodium berghei [9] = test: Antimalarial activity against Plasmodium berghei infected in po dosed mouse; type: functional
# Plasmodium yoelii [10] = test: Antimalarial activity against Plasmodium yoelii infected in po dosed mouse; type: functional
# Plasmodium falciparum [11] = test: Antimalarial activity against chloroquine-sensitive Plasmodium falciparum HB3; type: functional, organism-based
# Plasmodium falciparum [12] = test: Antimalarial activity against chloroquine-resistant Plasmodium falciparum K1; type: functional, organism-based
# Plasmodium falciparum [13] = test: Antimalarial activity against Plasmodium falciparum K1; type: functional, organism-based
# Plasmodium yoelii [14] = test: Antimalarial activity against Plasmodium yoelii infected in mouse; type: functional
# Plasmodium falciparum [15] = test: Antimalarial activity against Plasmodium falciparum W2; type: functional, organism-based
# Plasmodium berghei [16] = test: Antimalarial activity against Plasmodium berghei infected in mouse; type: functional; conditions: Plasmodium berghei
# Plasmodium falciparum [17] = test: Antimalarial activity against Plasmodium falciparum NF54; type: functional, organism-based
# Plasmodium berghei [18] = test: Antimalarial activity against Plasmodium berghei ANKA infected in po dosed mouse; type: functional
# Plasmodium berghei [19] = test: Antimalarial activity against Plasmodium berghei K173 infected in mouse; type: functional
# Plasmodium falciparum [20] = test: Antimalarial activity against late blood stage Plasmodium falciparum NF54 gametocytes; type: functional, organism-based
# Plasmodium falciparum [21] = test: Antimalarial activity against Plasmodium falciparum Dd2; type: functional, organism-based
# Plasmodium falciparum [22] = test: Antimalarial activity against Plasmodium falciparum FcB1 at 1 ng/ml; type: functional
# Plasmodium falciparum [23] = test: Antimalarial activity against Plasmodium falciparum FcB1 at 10 ng/ml; type: functional
# Plasmodium falciparum [24] = test: Antimalarial activity against Plasmodium falciparum FcB1 at 100 ng/ml; type: functional
# Plasmodium falciparum [25] = test: Antimalarial activity against Plasmodium falciparum 3D7; type: functional, organism-based
# [26] = Toxicity in brine shrimp; conditions: artemia salina
# Plasmodium falciparum [27] = test: Antimalarial activity against chloroquine-sensitive Plasmodium falciparum NF54 infected in po dosed mouse; type: functional
# Plasmodium falciparum [28] = test: Antimalarial activity against chloroquine-sensitive Plasmodium falciparum NF54 infected in iv dosed mouse; type: functional
# Plasmodium falciparum [29] = test: Antimalarial activity against chloroquine-sensitive Plasmodium falciparum NF54; type: functional, organism-based
# Plasmodium falciparum [30] = test: Antimalarial activity against chloroquine sensitive Plasmodium falciparum FCR-3; type: functional, organism-based
# Plasmodium falciparum [31] = test: Antimalarial activity against ART-resistant Plasmodium falciparum harboring R539T mutant assessed as increase in survival at 700 nM; type: functional
compound,measurement,setting,value
CCN(Cc1cc(C2(C)OOC(c3c[nH]c4ccccc34)OO2)ccc1O)c1ccccc1 (stereo unspecified),IC50,Plasmodium falciparum [1],8.19 µg/mL
C[C@H]1[C@@H](OCCCNc2ccc([N+](=O)[O-])c3nonc23)O[C@@H]2O[C@]3(C)CC[C@H]4[C@H](C)CC[C@@H]1[C@@]24OO3,IC50,Plasmodium falciparum [2],22.6 nM
same,IC50,Plasmodium falciparum [3],9.6 nM
same,IC50,Plasmodium falciparum [4],11.2 nM
same,IC50,Plasmodium falciparum [5],19.6 nM
same,IC50,Plasmodium falciparum [6],9.5 nM
CCN(Cc1cc(C2(C)OOC(c3ccccc3O)OO2)ccc1O)c1ccccc1 (stereo unspecified),IC50,Plasmodium falciparum [1],5.3 µg/mL
C[C@H]1[C@H](NC2CCN(Cc3ccccc3)CC2)O[C@@H]2O[C@]3(C)CC[C@H]4[C@H](C)CC[C@@H]1[C@@]24OO3,ED90,Plasmodium yoelii [7],0.85 mg/kg
same,ED90,Plasmodium berghei [8],0.7 mg/kg
same,ED90,Plasmodium berghei [9],2.4 mg/kg
same,ED90,Plasmodium yoelii [10],3 mg/kg
CNCCO[C@H]1O[C@@H]2O[C@]3(C)CC[C@H]4[C@H](C)CC[C@@H]([C@H]1C)[C@@]24OO3,IC50,Plasmodium falciparum [11],2.7 nM
same,IC50,Plasmodium falciparum [12],2.4 nM
CC1CC2CCC(C1)[C@@](C)(/C=C/[C@@H](O)C(C)(C)O)OO2 (stereo partly specified),IC50,Plasmodium falciparum [13],56 nM
same,ED50,Plasmodium yoelii [14],95 mg/kg
CO[C@H]1O[C@@H]2O[C@@]3(C)CC[C@H]4[C@H](C)CC[C@@H]([C@H]1C)[C@@]24OO3,IC50,Plasmodium falciparum [15],7 nM
same,ED50,Plasmodium berghei [16],6 mg/kg
same,IC50,Plasmodium falciparum [13],9 nM
same,IC50,Plasmodium falciparum [17],2 nM
same,ED50,Plasmodium berghei [18],10.57 mg/kg
C[C@@H]1CC[C@H]2[C@@H](C)C(Nc3ccc(Cl)cc3)O[C@@H]3O[C@]4(C)CC[C@@H]1[C@]32OO4 (stereo partly specified),SD50,Plasmodium berghei [19],1.77 mg/kg/day
C[C@H]1[C@H](N2CCN(S(=O)(=O)c3cccc(C(F)(F)F)c3)CC2)O[C@@H]2O[C@]3(C)CC[C@H]4[C@H](C)CC[C@@H]1[C@@]24OO3,IC50,Plasmodium falciparum [20],0.4 nM
C[C@H]1[C@@H](CCN2CCN(c3cccc(C(F)(F)F)c3)CC2)O[C@@H]2O[C@]3(C)CC[C@H]4[C@H](C)CC[C@@H]1[C@@]24OO3,ED90,Plasmodium yoelii [14],< 10 mg/kg
C[C@H]1[C@H](N2CCN(C(=O)c3ccc(F)cc3)CC2)O[C@@H]2O[C@]3(C)CC[C@H]4[C@H](C)CC[C@@H]1[C@@]24OO3,IC50,Plasmodium falciparum [13],2.1 nM
same,IC50,Plasmodium falciparum [17],1.06 nM
same,IC50,Plasmodium falciparum [21],1.5 nM
same,IC50,Plasmodium falciparum [20],0.6 nM
CCCN(CC(=O)NC(=O)c1ccccc1)C(=O)CCN1C(=O)[C@H](C)[C@@H]2CC[C@@H](C)[C@@H]3CC[C@]4(C)OO[C@]32[C@H]1O4,Activity,Plasmodium falciparum [22],100%
same,Activity,Plasmodium falciparum [23],99%
same,Activity,Plasmodium falciparum [24],100%
C[C@H]1[C@H](OC(=O)CCCc2ccccc2)O[C@@H]2O[C@]3(C)CC[C@H]4[C@H](C)CC[C@@H]1[C@@]24OO3,IC50,Plasmodium falciparum [25],5.36 nM
same,LC50,[26],139 µg/mL
C[C@H]1[C@H](CC(COC(=O)c2cc[n+]([O-])cc2)C[C@H]2O[C@@H]3O[C@]4(C)CC[C@H]5[C@H](C)CC[C@@H]([C@H]2C)[C@@]35OO4)O[C@@H]2O[C@]3(C)CC[C@H]4[C@H](C)CC[C@@H]1[C@@]24OO3 (stereo partly specified),ED50,Plasmodium falciparum [27],2 mg/kg
same,ED50,Plasmodium falciparum [28],0.8 mg/kg
same,EC50,Plasmodium falciparum [29],0.53 nM
C[C@@H]1CC[C@H]2[C@@H](C)C(=O)N(CCC(=O)N(CC(=O)NC(=O)c3ccccc3)C(C)(C)C)[C@@H]3O[C@]4(C)CC[C@@H]1[C@@]23OO4,Activity,Plasmodium falciparum [22],98%
same,Activity,Plasmodium falciparum [23],99%
same,Activity,Plasmodium falciparum [24],100%
CC1CC2CCC(C1)[C@@](C)(/C=C/[C@H](O)C(C)(C)O)OO2 (stereo partly specified),IC50,Plasmodium falciparum [13],115 nM
same,ED50,Plasmodium yoelii [14],50 mg/kg
CN1CCN(C2CCN(C(=O)CC3CCC4(CC3)OOC3(OO4)C4CC5CC(C4)CC3C5)CC2)CC1 (stereo unspecified),IC50,Plasmodium falciparum [25],0.8 nM
same,ED90,"Plasmodium berghei [18]; Plasmodium berghei, ANKA",4.18 mg/kg
same,ED50,"Plasmodium berghei [18]; Plasmodium berghei, ANKA, read-out: ED50",1.33 mg/kg
C[C@H]1[C@@H](OC(=O)c2ccc3[nH]cnc3c2)O[C@@H]2O[C@]3(C)CC[C@H]4[C@H](C)CC[C@@H]1[C@@]24OO3,IC50,Plasmodium falciparum [25],6.96 nM
same,LC50,[26],362 µg/mL
C[C@@H]1CC[C@H]2[C@@H](C)C(=O)N(CCC(=O)N(CCO)CC(=O)NC(=O)c3ccccc3)[C@@H]3O[C@]4(C)CC[C@@H]1[C@@]23OO4,Activity,Plasmodium falciparum [22],78%
same,Activity,Plasmodium falciparum [23],99%
same,Activity,Plasmodium falciparum [24],100%
C[C@H]1[C@H](CC(C[C@H]2O[C@@H]3O[C@]4(C)CC[C@H]5[C@H](C)CC[C@@H]([C@H]2C)[C@@]35OO4)C(=O)O)O[C@@H]2O[C@]3(C)CC[C@H]4[C@H](C)CC[C@@H]1[C@@]24OO3 (stereo partly specified),ED50,Plasmodium falciparum [27],2 mg/kg
same,ED50,Plasmodium falciparum [28],0.8 mg/kg
same,EC50,Plasmodium falciparum [29],2.4 nM
C[C@H]1[C@H](n2cc(-c3ccccc3C(F)(F)F)nn2)O[C@@H]2O[C@]3(C)CC[C@H]4[C@H](C)CC[C@@H]1[C@@]24OO3,IC50,Plasmodium falciparum [30],4.6 nM
C[C@@H]1CC[C@H]2[C@@H](C)C(Nc3ccc(C(=O)O)cc3)O[C@@H]3O[C@]4(C)CC[C@@H]1[C@]32OO4 (stereo partly specified),SD50,Plasmodium berghei [19],1.36 mg/kg/day
CC12C=CC(=O)CC1OC(c1c[nH]c3ccccc13)OO2 (stereo unspecified),IC50,Plasmodium falciparum [25],1240 nM
same,IC50,Plasmodium falciparum [1],1170 nM
FC1(F)C2CC3CC1CC(C2)C31OO[C@]2(CC[C@@H](c3ccc(OCCN4CCOCC4)cc3)CC2)O1 (stereo partly specified),Activity,Plasmodium falciparum [31],<0.01%
